{"source": "ChEMBL document CHEMBL4665624", "about": "“Synthesis of 5-(4-(1H-phenanthro[9,10-d]imidazol-2-yl)benzylidene)thiazolidine-2,4-dione as promising DNA and serum albumin-binding agents and evaluation of antitumor activity” (Eur J Med Chem, 2019)", "key": {"A498": {"test_system": "A498", "experiment": "Cytotoxicity against human A498 cells assessed as cell death at 10 uM incubated for 48 hrs by sulforhodamine B assay", "assay_type": "functional, cell-based"}, "SK-MEL-28": {"test_system": "SK-MEL-28", "experiment": "Antitumor activity against human SK-MEL-28 cells assessed as cell growth inhibition at 10 uM incubated for 48 hrs by sulforhodamine B assay", "assay_type": "functional", "conditions": "read-out: GI"}, "IGROV-1": {"test_system": "IGROV-1", "experiment": "Antitumor activity against human IGROV1 cells assessed as cell growth inhibition at 10 uM incubated for 48 hrs by sulforhodamine B assay", "assay_type": "functional", "conditions": "read-out: GI"}, "ACHN": {"test_system": "ACHN", "experiment": "Antitumor activity against human ACHN cells assessed as cell growth inhibition at 10 uM incubated for 48 hrs by sulforhodamine B assay", "assay_type": "functional", "conditions": "read-out: GI"}, "RPMI-8226": {"test_system": "RPMI-8226", "experiment": "Antitumor activity against human RPMI8226 cells assessed as cell growth inhibition at 10 uM incubated for 48 hrs by sulforhodamine B assay", "assay_type": "functional", "conditions": "read-out: GI"}, "MOLT-4": {"test_system": "MOLT-4", "experiment": "Antitumor activity against human MOLT4 cells assessed as cell growth inhibition at 10 uM incubated for 48 hrs by sulforhodamine B assay", "assay_type": "functional", "conditions": "read-out: GI"}, "NCI/ADR-RES": {"test_system": "NCI/ADR-RES", "experiment": "Antitumor activity against human NCI/ADR-RES cells assessed as cell growth inhibition at 10 uM incubated for 48 hrs by sulforhodamine B assay", "assay_type": "functional", "conditions": "read-out: GI"}, "NCI-H23": {"test_system": "NCI-H23", "experiment": "Antitumor activity against human NCI-H23 cells assessed as cell growth inhibition at 10 uM incubated for 48 hrs by sulforhodamine B assay", "assay_type": "functional", "conditions": "read-out: GI"}, "SK-OV-3": {"test_system": "SK-OV-3", "experiment": "Antitumor activity against human SK-OV-3 cells assessed as cell growth inhibition at 10 uM incubated for 48 hrs by sulforhodamine B assay", "assay_type": "functional", "conditions": "read-out: GI"}, "OVCAR-3": {"test_system": "OVCAR-3", "experiment": "Antitumor activity against human OVCAR-3 cells assessed as cell growth inhibition at 10 uM incubated for 48 hrs by sulforhodamine B assay", "assay_type": "functional", "conditions": "read-out: GI"}, "HCC 2998": {"test_system": "HCC 2998", "experiment": "Cytotoxicity against human HCC2998 cells assessed as cell death at 10 uM incubated for 48 hrs by sulforhodamine B assay", "assay_type": "functional, cell-based"}, "HCT-15": {"test_system": "HCT-15", "experiment": "Antitumor activity against human HCT15 cells assessed as cell growth inhibition at 10 uM incubated for 48 hrs by sulforhodamine B assay", "assay_type": "functional", "conditions": "read-out: GI"}, "NCI-H226": {"test_system": "NCI-H226", "experiment": "Antitumor activity against human NCI-H226 assessed as cell growth inhibition at 10 uM incubated for 48 hrs by sulforhodamine B assay", "assay_type": "functional", "conditions": "read-out: GI"}, "U-251": {"test_system": "U-251", "experiment": "Antitumor activity against human U251 cells assessed as cell growth inhibition at 10 uM incubated for 48 hrs by sulforhodamine B assay", "assay_type": "functional", "conditions": "read-out: GI"}, "LOX IMVI": {"test_system": "LOX IMVI", "experiment": "Antitumor activity against human LOX IMVI cells assessed as cell growth inhibition at 10 uM incubated for 48 hrs by sulforhodamine B assay", "assay_type": "functional", "conditions": "read-out: GI"}, "CCRF-CEM": {"test_system": "CCRF-CEM", "experiment": "Antitumor activity against human CCRF-CEM cells assessed as cell growth inhibition at 10 uM incubated for 48 hrs by sulforhodamine B assay", "assay_type": "functional", "conditions": "read-out: GI"}, "SN12C": {"test_system": "SN12C", "experiment": "Antitumor activity against human SN12C cells assessed as cell growth inhibition at 10 uM incubated for 48 hrs by sulforhodamine B assay", "assay_type": "functional", "conditions": "read-out: GI"}, "BT-549": {"test_system": "BT-549", "experiment": "Antitumor activity against human BT-549 cells assessed as cell growth inhibition at 10 uM incubated for 48 hrs by sulforhodamine B assay", "assay_type": "functional", "conditions": "read-out: GI"}, "UACC-62": {"test_system": "UACC-62", "experiment": "Antitumor activity against human UACC-62 cells assessed as cell growth inhibition at 10 uM incubated for 48 hrs by sulforhodamine B assay", "assay_type": "functional", "conditions": "read-out: GI"}, "SNB-75": {"test_system": "SNB-75", "experiment": "Antitumor activity against human SNB-75 cells assessed as cell growth inhibition at 10 uM incubated for 48 hrs by sulforhodamine B assay", "assay_type": "functional", "conditions": "read-out: GI"}, "Malme-3M": {"test_system": "Malme-3M", "experiment": "Antitumor activity against human MALME-3M cells assessed as cell growth inhibition at 10 uM incubated for 48 hrs by sulforhodamine B assay", "assay_type": "functional", "conditions": "read-out: GI"}, "PC-3": {"test_system": "PC-3", "experiment": "Antitumor activity against human PC-3 cells assessed as cell growth inhibition at 10 uM incubated for 48 hrs by sulforhodamine B assay", "assay_type": "functional", "conditions": "read-out: GI"}, "UO-31": {"test_system": "UO-31", "experiment": "Antitumor activity against human UO-31 cells assessed as cell growth inhibition at 10 uM incubated for 48 hrs by sulforhodamine B assay", "assay_type": "functional", "conditions": "read-out: GI"}, "Hs-578T": {"test_system": "Hs-578T", "experiment": "Cytotoxicity against human HS 578T cells assessed as cell death at 10 uM incubated for 48 hrs by sulforhodamine B assay", "assay_type": "functional, cell-based"}, "SW-620": {"test_system": "SW-620", "experiment": "Antitumor activity against human SW620 cells assessed as cell growth inhibition at 10 uM incubated for 48 hrs by sulforhodamine B assay", "conditions": "SW-620, 48 h, read-out: GI"}, "SF-268": {"test_system": "SF-268", "experiment": "Antitumor activity against human SF268 cells assessed as cell growth inhibition at 10 uM incubated for 48 hrs by sulforhodamine B assay", "assay_type": "functional", "conditions": "read-out: GI"}, "SF-295": {"test_system": "SF-295", "experiment": "Antitumor activity against human SF295 cells assessed as cell growth inhibition at 10 uM incubated for 48 hrs by sulforhodamine B assay", "assay_type": "functional", "conditions": "read-out: GI"}, "HOP-92": {"test_system": "HOP-92", "experiment": "Antitumor activity against human HOP92 cells assessed as cell growth inhibition at 10 uM incubated for 48 hrs by sulforhodamine B assay", "assay_type": "functional", "conditions": "read-out: GI"}, "SR": {"test_system": "SR", "experiment": "Antitumor activity against human SR cells assessed as cell growth inhibition at 10 uM incubated for 48 hrs by sulforhodamine B assay", "assay_type": "functional", "conditions": "read-out: GI"}, "HL-60(TB)": {"test_system": "HL-60(TB)", "experiment": "Antitumor activity against human HL-60(TB) cells assessed as cell growth inhibition at 10 uM incubated for 48 hrs by sulforhodamine B assay", "assay_type": "functional", "conditions": "read-out: GI"}, "KM12": {"test_system": "KM12", "experiment": "Antitumor activity against human KM12 cells assessed as cell growth inhibition at 10 uM incubated for 48 hrs by sulforhodamine B assay", "assay_type": "functional", "conditions": "read-out: GI"}, "MDA-MB-231": {"test_system": "MDA-MB-231", "experiment": "Antitumor activity against human MDA-MB-231/ATCC cells assessed as cell growth inhibition at 10 uM incubated for 48 hrs by sulforhodamine B assay", "assay_type": "functional", "conditions": "read-out: GI"}, "MCF7": {"test_system": "MCF7", "experiment": "Antitumor activity against human MCF7 cells assessed as cell growth inhibition at 10 uM incubated for 48 hrs by sulforhodamine B assay", "assay_type": "functional", "conditions": "read-out: GI"}, "OVCAR-4": {"test_system": "OVCAR-4", "experiment": "Antitumor activity against human OVCAR-4 cells assessed as cell growth inhibition at 10 uM incubated for 48 hrs by sulforhodamine B assay", "assay_type": "functional", "conditions": "read-out: GI"}, "HCT-116": {"test_system": "HCT-116", "experiment": "Antitumor activity against human HCT116 cells assessed as cell growth inhibition at 10 uM incubated for 48 hrs by sulforhodamine B assay", "assay_type": "functional", "conditions": "read-out: GI"}, "K562": {"test_system": "K562", "experiment": "Antitumor activity against human K562 cells assessed as cell growth inhibition at 10 uM incubated for 48 hrs by sulforhodamine B assay", "assay_type": "functional", "conditions": "read-out: GI"}, "NCI-H522": {"test_system": "NCI-H522", "experiment": "Antitumor activity against human NCI-H522 cells assessed as cell growth inhibition at 10 uM incubated for 48 hrs by sulforhodamine B assay", "assay_type": "functional", "conditions": "read-out: GI"}}, "note": "Calls of active or inactive are those of the source. The rule behind the calls is not given here."}
{"smiles": "O=c1[nH]cc(F)c(=O)[nH]1", "note": "[FLUOROURACIL]", "values": [{"measurement": "Activity", "setting": "A498", "result": "Active"}, {"measurement": "inhibition of growth at 10 µM", "setting": "SK-MEL-28", "result": 19.5, "unit": "%"}, {"measurement": "inhibition of growth at 10 µM", "setting": "IGROV-1", "result": 51.2, "unit": "%"}, {"measurement": "inhibition of growth at 10 µM", "setting": "ACHN", "result": 39.3, "unit": "%"}, {"measurement": "inhibition of growth at 10 µM", "setting": "RPMI-8226", "result": 41.4, "unit": "%"}, {"measurement": "inhibition of growth at 10 µM", "setting": "MOLT-4", "result": 43.1, "unit": "%"}, {"measurement": "inhibition of growth at 10 µM", "setting": "NCI/ADR-RES", "result": 47.6, "unit": "%"}, {"measurement": "inhibition of growth at 10 µM", "setting": "NCI-H23", "result": 39, "unit": "%"}, {"measurement": "inhibition of growth at 10 µM", "setting": "SK-OV-3", "result": 77.5, "unit": "%"}, {"measurement": "inhibition of growth at 10 µM", "setting": "OVCAR-3", "result": 47.4, "unit": "%"}, {"measurement": "Activity", "setting": "HCC 2998", "result": "Active"}, {"measurement": "inhibition of growth at 10 µM", "setting": "HCT-15", "result": 26.5, "unit": "%"}, {"measurement": "inhibition of growth at 10 µM", "setting": "NCI-H226", "result": 69.5, "unit": "%"}, {"measurement": "inhibition of growth at 10 µM", "setting": "U-251", "result": 50.3, "unit": "%"}, {"measurement": "inhibition of growth at 10 µM", "setting": "LOX IMVI", "result": 30.4, "unit": "%"}, {"measurement": "inhibition of growth at 10 µM", "setting": "CCRF-CEM", "result": 57.1, "unit": "%"}, {"measurement": "inhibition of growth at 10 µM", "setting": "SN12C", "result": 54, "unit": "%"}, {"measurement": "inhibition of growth at 10 µM", "setting": "BT-549", "result": 37.8, "unit": "%"}, {"measurement": "inhibition of growth at 10 µM", "setting": "UACC-62", "result": 39.7, "unit": "%"}, {"measurement": "inhibition of growth at 10 µM", "setting": "SNB-75", "result": 65.9, "unit": "%"}, {"measurement": "inhibition of growth at 10 µM", "setting": "Malme-3M", "result": 58.2, "unit": "%"}, {"measurement": "inhibition of growth at 10 µM", "setting": "PC-3", "result": 58.2, "unit": "%"}, {"measurement": "inhibition of growth at 10 µM", "setting": "UO-31", "result": 41.3, "unit": "%"}, {"measurement": "Activity", "setting": "Hs-578T", "result": "Active"}, {"measurement": "inhibition of growth at 10 µM", "setting": "SW-620", "result": "< 10", "unit": "%"}, {"measurement": "inhibition of growth at 10 µM", "setting": "SF-268", "result": 59, "unit": "%"}, {"measurement": "inhibition of growth at 10 µM", "setting": "SF-295", "result": 69, "unit": "%"}, {"measurement": "inhibition of growth at 10 µM", "setting": "HOP-92", "result": 50.6, "unit": "%"}, {"measurement": "inhibition of growth at 10 µM", "setting": "SR", "result": 24.8, "unit": "%"}, {"measurement": "inhibition of growth at 10 µM", "setting": "HL-60(TB)", "result": 47.9, "unit": "%"}, {"measurement": "inhibition of growth at 10 µM", "setting": "KM12", "result": 40.7, "unit": "%"}, {"measurement": "inhibition of growth at 10 µM", "setting": "MDA-MB-231", "result": 78.1, "unit": "%"}, {"measurement": "inhibition of growth at 10 µM", "setting": "MCF7", "result": 11.5, "unit": "%"}, {"measurement": "inhibition of growth at 10 µM", "setting": "OVCAR-4", "result": 59.4, "unit": "%"}, {"measurement": "inhibition of growth at 10 µM", "setting": "HCT-116", "result": 17.8, "unit": "%"}, {"measurement": "inhibition of growth at 10 µM", "setting": "K562", "result": 42.3, "unit": "%"}, {"measurement": "inhibition of growth at 10 µM", "setting": "NCI-H522", "result": 58, "unit": "%"}]}
